Several values for one entry are separate records, joined by “and”; a condition that tells them apart may be missing. Identical values can stand only once. Entries after “also recorded” stand apart in the source; their conditions may differ. Like-named read-outs stand apart in the source and are kept apart here.
What was measured:
[1] = system: unilateral 6-OHDA-lesioned rats; experiment: Rearing counts in actometers, monotherapy (without L-Dopa); format: in vivo, rat; settings: Co-101244 1 mg/kg ip
Protocol: (§1) To protect norepinephrinergic neurons, animals were administered imipramine HCl (Sigma) 15 minutes before surgery. They were subsequently anesthetized with ketamine (Ceva, 75 mg/kg) and xylazine (Bayer, 10 mg/kg) and placed in stereotaxic frame (David Kopf Instrument). 6-OHDA was injected into the right ascending medial forebrain bundle at the following coordinates (in mm) relative to bregma and surface of the dura, AP = −3.5, ML = −1.5, DV = −8.7. Each rat received one injection of 6-OHDA (4 µg/µl) over a period of 5 minutes (0.5 µl/min) for a total of 10 µg per rat. Animals were monitored for 3 weeks to ensure full recovery and habituation to the environment and experimenters.
(§2) On day 21 post surgery, all rats were challenged with a small dose of subcutaneously administered apomorphine (Sigma, 0.05 mg/kg). Rats showing more than 90 contralateral rotations (360°) over a 45-minute recording period were included in the study. […] For each experiment, rats were allocated to the different experimental groups in order to get the same mean level of basal activity measured at the apomorphine challenge amongst the different experimental groups.
(§3) Drug-naïve separate rats were tested individually in clear acrylic chambers (LE8811 IR, Panlab). Locomotion was detected and measured by 16 infrared light-beam sensors located on each side of the enclosure at a height of 3 cm. Sensors were spaced such that the light beams formed a matrix of 15×15 squares over the surface. Activity counts were recorded on a computer and Acti-Track software (Actitrack, Panlab) was used to convert raw data into “distance traveled” and “rearing counts” for analysis as relevant dependent variables.
(§4) Six different combinations of A2A/NR2B antagonists were tested without L-Dopa. For each combination, there were four different procedures: vehicle only; A2A antagonist followed by vehicle; vehicle followed by the NR2B antagonist and A2A antagonist followed by the NR2B antagonist. The drugs, doses and combinations are described in Table 3. After drug administration, rats were placed in actometers (open-field) for monitoring the general level of motor activity (distance traveled and rearing counts).
(§5) Before undertaking the study, each A2A and NR2B antagonist was tested individually. The doses were selected on the basis of preliminary dose-response curves performed separately for each drug and submaximal dose (i.e. response observed is not at its maximal level) of each drug was selected for the combination studies. The two drugs were administered separately via an intraperitoneal (ip) injection with a 2-minute interval between the two drugs. Five minutes after the second injection, animals were placed in the testing cage for behavioural recording. Due to formulation and exposure issues, Tozadenant and Radiprodil had to be administered orally and therefore recording was started 60 minutes post dosing at this corresponds to maximum plasma concentrations. Eight drug-naïve animals were used for each of the four procedures; 32 in total for each combination. All behavioral experiments were conducted between 8.00 AM and 2.00 PM at the latest. Preliminary pharmacokinetic assays investigated the plasma and brain disposition of selected drugs administered alone or in combination (ie. Tozadenant/Radiprodil, and Sch-58261/Co-101244; 3 animals per group). Tozadenant and Radiprodil were measured in samples obtained 60 minutes after single oral administration at 30 mg/kg. Sch-58261 and Co-101244 were measured in samples collected 90 min after single intraperitoneal administration at 3 mg/kg.
(§6) The effects of A2A and NR2B antagonists on the level of motor activity (i.e. distance traveled and rearing counts) were assessed with three-way mixed ANOVA, combining the A2A receptor antagonist (2 levels, vehicle and the A2A drug) and the NR2B antagonist (2 levels, vehicle and the NR2B drug) as between-group factors with the time as within-subjects factor (6 or 9 levels). […]

[2] = system: unilateral 6-OHDA-lesioned rats; experiment: Distance traveled in actometers, monotherapy (without L-Dopa); format: in vivo, rat; settings: Co-101244 1 mg/kg ip
Protocol: as §1, §2, §3, §4, §5, §6

NR2B [3] = settings: In vitro Binding; cited from earlier work
[4] = Plasma and brain exposure in satellite lesioned rats; format: in vivo, rat; settings: 90 min after dosing, mean ± SD
Protocol: Satellite lesioned rats (400–450 g) were anesthetized with isoflurane and sacrificed by exsanguination. Blood samples were collected in EDTA centrifuged 10 min at 3000 rpm at 4°C to obtain plasma and stored at −20°C prior the analysis. Brains were perfused by saline collected and immediately stored at −20°C prior the analysis. Brain samples were added to 4 volumes of water before being homogenized. A structural analog compound was added as internal standard to the samples and proteins were crashed using 8 volumes of acetonitrile. Compounds were analyzed on an API5000 mass spectrometer (ABSciex, Framingham, MA, USA.) equipped with a turbo ion spray source and interfaced with an Agilent 1290 Infinity LC system (Agilent Technologies, Waldbroon, Germany). The mass spectrometer was operated in the positive ionization mode with Multiple Reactions Monitoring used to quantify the various analytes (407 to 292 for Tozadenant; 398 to 109 for Radiprodil, 346 to 105 for Sch-58261 and 342 to 100 for Co-101244). A Waters HSS T3 column (2.1×30 mm, 1.8 µm) was used. The mobile phase consisted of 100% water with 0.1% formic acid (phase A) and 100% acetonitrile with 0.1% formic acid (phase B). The flow rate was 1 mL/min. A linear gradient was performed from 0 to 1 min (95 to 30% phase A), a jump to 90% B in 0.01 min, a hold period of 1.29 min at 90% phase B followed by equilibration at the initial condition was applied before the following injection.
as §5

[5] = system: unilateral 6-OHDA-lesioned rats; experiment: L-Dopa-induced contralateral rotations in rotometers, add-on therapy; format: in vivo, rat; settings: add-on to L-Dopa 25 mg/kg ip, Sch-58261 0.3 mg/kg ip, Co-101244 1 mg/kg ip
Protocol: as §1, §2
The rats tested one week earlier for general activity (actometers) were once again placed in clear acrylic individual chambers (50×45 cm) with the same treatment (drug and dose) than that previously received plus L-Dopa. Eight chambers were placed on a level, clear glass bottom, held by a robust frame, and were subdivided into four individual test cages of 25×22 cm. A removable acrylic plate served as a lid.
Rotational behaviour was recorded using a home-made computerized system. Rats were fixed in a harness and linked to mechanical sensors connected directly to a computer. Each 360° clock-wise or counter clock-wise turn was automatically recorded for up to 120 minutes at the maximum. Throughout the experiments, rats were allocated to individual test cages.
Four different combinations were administered as add-on treatment to a low active dose of L-Dopa (25 mg/kg, ip) without any dopa decarboxylase inhibitor to avoid any additional pharmacokinetic interaction. The doses of the compounds were selected on the basis of preliminary dose-response curves performed separately for each drug. To avoid ceiling effect with L-Dopa, only submaximal doses of each drug were selected for testing (as it was done previously for monotherapy). Eight L-Dopa naïve animals were tested for each of the four pharmacological condition: vehicle and L-Dopa (25 mg/kg); A2A antagonist followed by vehicle and L-Dopa; vehicle followed by NR2B antagonist and L-Dopa; A2A antagonist followed by NR2B and L-Dopa. Due to the dominance of the L-Dopa-effect on the lesioned striatum, the unilateral 6-OHDA-lesioned rats rotated after the drugs administration and behavioral activity was recorded in rotometers (i.e. level of contralateral rotations).
All drugs were administered i.p. 25 minutes before behavioural recording, except for the Tozadenant and Radiprodil combination which was administered orally 60 minutes before behavioural recording. As Radiprodil was administered orally, L-Dopa was given 45 minutes after the Radiprodil injection whereas for the other combinations L-Dopa was given 15 minutes after the NR2B drug. The drugs, the doses and the combinations given in co-administration to L-Dopa are described in Table 4 .
The impact of treatment with A2A or NR2B receptor antagonists, given alone or in combination, on the effect of L-Dopa on contralateral rotations was also analysed with a three-way mixed ANOVA. The ANOVA included the A2A and the NR2B receptor antagonists (both, 2 levels, vehicle and the drug) as between-group factors combined with time (12 levels) as within-subjects factor. […] The ability of the combination to increase and prolong the activity of L-Dopa was also explored. Consequently, drug effects were analyzed for every 10-min time interval. […]

NR2B [6] = system: NR2B; set-up: method as in PMID 10454475, PMID 10425109; settings: TEVC recording; cited from earlier work

- Plasma concentration ([4]; administered alone, ip 3 mg/kg, 3 animals (Co-101244 n = 2)): 54.7 (n = 2) ng/mL
- Plasma concentration ([4]; administered in combination Sch-58261+Co-101244, both ip 3 mg/kg, 3 animals): 55.4 ± 8.32 ng/mL
SMILES: Cc1ccc(CC2(O)CCN(CCOc3ccc(O)cc3)CC2)cc1 [Co-101244]
- Rearing counts, drugs alone vs vehicle, p (Newman-Keuls) ([1]; Istradefylline 0.3 mg/kg ip): Co-101244, not significant
- Rearing counts, drugs main effect, p (three-way mixed ANOVA) ([1]; Istradefylline 0.3 mg/kg ip): Not significant
- Rearing counts, drugs × time effect, p (three-way mixed ANOVA) ([1]; Istradefylline 0.3 mg/kg ip): p<0.01
- Rearing counts, drugs main effect, p (three-way mixed ANOVA) ([1]; Sch-58261 1 mg/kg ip): p<0.001
- Rearing counts, drugs × time effect, p (three-way mixed ANOVA) ([1]; Sch-58261 1 mg/kg ip): p<0.001
- Distance traveled, drugs alone vs vehicle, p (Newman-Keuls) ([2]; Istradefylline 0.3 mg/kg ip): not all drugs when administered alone improved distance traveled; also recorded: Not significant
- Distance traveled, drugs main effect, p (three-way mixed ANOVA) ([2]; Istradefylline 0.3 mg/kg ip): p<0.05
- Distance traveled, drugs × time effect, p (three-way mixed ANOVA) ([2]; Istradefylline 0.3 mg/kg ip): p<0.001
- Distance traveled, drugs main effect, p (three-way mixed ANOVA) ([2]; Sch-58261 1 mg/kg ip): p<0.001
- Distance traveled, drugs × time effect, p (three-way mixed ANOVA) ([2]; Sch-58261 1 mg/kg ip): p<0.001
- IC50 (NR2B [3]): 4 nM
- Contralateral rotations, drugs main effect, p (three-way mixed ANOVA) [5]: Not significant
- Contralateral rotations, drugs × time effect, p (three-way mixed ANOVA) [5]: p<0.001
- IC50 (NR2B [6]): 26 nM and 43 nM

Reference: article PMC4267740, “Unprecedented Therapeutic Potential with a Combination of A2A/NR2B Receptor Antagonists as Observed in the 6-OHDA Lesioned Rat Model of Parkinson's Disease” (PLoS ONE, 2014)
